Results taken from patent publication US20080045580A1, “Novel Isoxazole Compounds Having Ppar Agonist Activity” (DR REDDY'S LABORATORIES LIMITED, priority 2004, published 2008).

Tests used:
[1] = target: T1, human PPARα (Homo sapiens, UniProt Q07869); assay: in vitro PPARα transactivation (GAL4-LBD luciferase reporter in HEK-293 cells); assay type: cell-based
T1 construct: expressed in transfected cells; host or cells: HEK-293
T1 sequence (Q07869 239-466 limits assumed): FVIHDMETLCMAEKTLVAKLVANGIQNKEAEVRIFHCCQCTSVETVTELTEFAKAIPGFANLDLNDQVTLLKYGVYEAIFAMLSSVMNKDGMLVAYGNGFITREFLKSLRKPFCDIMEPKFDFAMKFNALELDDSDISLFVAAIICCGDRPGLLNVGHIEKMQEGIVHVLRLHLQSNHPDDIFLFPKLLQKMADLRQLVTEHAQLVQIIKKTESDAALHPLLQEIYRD
Excerpt: Generally, suitable PPAR agonists are believed to be useful for attenuating and/or treatment of diabetic dyslipidemia, metabolic syndrome, diabetes, cardiovascular disease, and obesity. The following procedure was used for in vitro determination of PPARα, γ and δ transactivation.
(§1) The ligand binding domain of human PPARγ1, PPARα or PPARδ was fused to the C-terminal end of DNA binding domain of yeast transcription factor GAL4 in eukaryotic expression vector. Using SuperFect (Qiagen), HEK-293 cells were transfected with this plasmid and a reporter plasmid harboring the luciferase gene driven under the control of 5 tandem GLA4 response elements. In some experiments, pAdVantage vector (Promega) was used to enhance luciferase expression. Compounds were added approximately 48 hours after transfection at various concentrations and incubated overnight. The cells were lysed and the luciferase activity was measured using the LucLite kit in Top Count (Packard). Luciferase activity was expressed as fold activation relative to untreated cells in the same experiment.

[2] = target: T2, human PPARδ (Homo sapiens, UniProt Q03181); assay: in vitro PPARδ transactivation (GAL4-LBD luciferase reporter in HEK-293 cells); assay type: cell-based
T2 construct: expressed in transfected cells; host or cells: HEK-293
T2 sequence (Q03181 211-439 limits assumed): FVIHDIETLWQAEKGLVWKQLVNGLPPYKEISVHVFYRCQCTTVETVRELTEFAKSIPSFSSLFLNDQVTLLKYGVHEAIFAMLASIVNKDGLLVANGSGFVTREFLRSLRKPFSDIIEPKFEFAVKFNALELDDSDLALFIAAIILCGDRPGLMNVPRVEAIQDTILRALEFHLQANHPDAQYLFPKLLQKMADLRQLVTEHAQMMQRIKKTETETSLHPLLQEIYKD
Excerpt: (§2) The following procedure was used for in vitro determination of PPARα, γ and δ transactivation.
as §1

[3] = target: T3, human PPARγ1 (Homo sapiens, UniProt P37231); assay: in vitro PPARγ transactivation (GAL4-LBD luciferase reporter in HEK-293 cells); assay type: cell-based
T3 construct: expressed in transfected cells; host or cells: HEK-293
T3 sequence (P37231 238-503 limits assumed): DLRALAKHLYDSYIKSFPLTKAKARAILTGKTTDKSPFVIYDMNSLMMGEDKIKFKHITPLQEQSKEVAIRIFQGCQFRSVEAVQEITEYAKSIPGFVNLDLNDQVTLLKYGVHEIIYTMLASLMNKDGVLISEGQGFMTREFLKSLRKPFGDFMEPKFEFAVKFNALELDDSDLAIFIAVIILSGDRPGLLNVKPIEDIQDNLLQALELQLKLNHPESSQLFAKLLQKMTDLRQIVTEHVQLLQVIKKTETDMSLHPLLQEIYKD
Excerpt: as §2, §1

[4] = test system: Male Swiss albino mice; assay: plasma triglyceride lowering in Swiss albino mice; assay type: in vivo; settings: plasma triglycerides
Protocol: Male Swiss albino mice (SAM) were obtained from National Institute Nutrition (NIN, Hyderabad, India) and housed in Dr. Reddy's Laboratories Ltd (DRL) animal house. All these animals were maintained under 12 hour light and dark cycle at 25±1° C. Animals were given standard laboratory chow (NIN, Hyderabad, India) and water, ad libitum. Mice of 20-25 grams body weight range were used. See Olivier, et al., Atherosclerosis, 1988, 70:107-114, incorporated herein by reference in its entirety. The test compounds were administered orally to mice at the doses shown in the following in table for 6 days. […] After centrifugation, plasma was separated for plasma triglyceride and total cholesterol measurement. See Wieland, Methods of Enzymatic Analysis, Bergermeyer, ed., 1963, 211-214; Trinder, Ann. Clin. Biochenz., 1969, 6:24-27, incorporated herein by reference in their entireties. Measurement of cholesterol and plasma triglyceride was done using a […] autoanalyser (Merck). The percent reductions in plasma triglycerides (TG)/total cholesterol were calculated according to the following formula: [formula] OC=Zero day control group value OT=Zero day treated group value TC=Test day control group value TT=Test day treated group value.

[5] = test system: hypercholesterolemic Male Sprague Dawley rats; assay: lipid lowering in hypercholesterolemic Sprague Dawley rats; assay type: in vivo; settings: hypercholesterolemic SD rats, 3 mg/kg orally for 3 days; for % Reduction TG: plasma triglycerides; for % Reduction TC: total cholesterol; for % Reduction LDL: LDL cholesterol calculated from TC, HDL, TG; for HDL % increase: values represent % increase
Protocol: Male Sprague Dawley rats (NIN stock) were bred in DRL animal house. Animals were maintained under 12 hour light and dark cycle at 25±1° C. Rats of 180-200 gram body weight range were used for the experiment. Animals were made hypercholesterolemic by feeding 2% cholesterol and 1% sodium cholate mixed with standard laboratory chow (NIN) for 6 days. Throughout the experimental period the animals were maintained on the same diet. Control rats were treated with vehicle alone (0.25% CMC; 10 ml/kg). Blood samples were collected in fed state 1 hour after drug administration on 0 and 3 days of treatment from the retro-orbital sinus through heparinized capillary tubes containing EDTA. After centrifugation, plasma sample was separated for total cholesterol, HDL and plasma triglyceride measurement. Measurement of total cholesterol, HDL and plasma triglyceride was done using a Vitalab Selectra autoanalyser (Merck). HDL was measured using a commercial kit. LDL and VLDL cholesterol were calculated from the data obtained for total cholesterol, HDL and plasma triglyceride.
The percent reductions in plasma triglycerides (TG)/total cholesterol (TC) were calculated as described in Example 55. The levels of LDL and VLDL cholesterol were calculated according to the following formulas: LDL cholesterol in mg/dl=[Total cholesterol−HDL cholesterol−Triglyceride/5] VLDL cholesterol in mg/dl=[Total cholesterol−HDL cholesterol−LDL cholesterol]

Row | Compound | PPARα luciferase fold activation relative to untreated cells ([1]; 1 μM) | PPARα luciferase fold activation relative to untreated cells ([1]; 10 μM) | PPARα luciferase fold activation relative to untreated cells ([1]; 50 μM) | PPARδ luciferase fold activation relative to untreated cells ([2]; 1 μM) | PPARδ luciferase fold activation relative to untreated cells ([2]; 10 μM) | PPARδ luciferase fold activation relative to untreated cells ([2]; 50 μM) | PPARγ luciferase fold activation relative to untreated cells ([3]; 1 μM) | PPARγ luciferase fold activation relative to untreated cells ([3]; 10 μM) | PPARγ luciferase fold activation relative to untreated cells ([3]; 50 μM) | % reduction in TG ([4]; 3 mg/kg orally for 6 days) [%] | melting point [°C] | % Reduction TG [5] [%] | % Reduction TC [5] [%] | % Reduction LDL [5] [%] | HDL % increase [5] [%] | % reduction in TG ([4]; 1 mg/kg orally for 6 days) [%]
1 | CCC(C)(Oc1ccc(OCc2cc(-c3ccc(OS(C)(=O)=O)cc3)no2)cc1)C(=O)O (stereo not drawn) [Example 5] | 1.7 | 3.8 | 6.0 | 9.0 | 10 | 33 | 0.9 | 1.2 | 6.4 | 75 | – | – | – | – | – | –
2 | CCC(C)(Oc1ccc(OCc2cc(-c3ccccc3)no2)cc1)C(=O)O (stereo not drawn) [Example 8] | 1.3 | 2.6 | 3.5 | – | – | – | 0.5 | 1.2 | 4.1 | 52 | 70 to 74 | – | – | – | – | –
3 | CCC(C)(Oc1ccc(OCCCc2cc(-c3ccccc3)no2)cc1)C(=O)O (stereo not drawn) [Example 10] | 4.0 | 5.7 | 5.1 | 7.5 | 23 | 47 | 0.9 | 3.5 | 9.5 | 75 | 115 to 117 | – | – | – | – | –
4 | CCC(C)(Oc1ccc(OCc2cc(-c3ccc(C(F)(F)F)cc3)no2)cc1)C(=O)O (stereo not drawn) [Example 11] | 4.1 | 4.0 | 4.0 | – | – | – | 2.4 | 2.7 | 3.6 | 65 | 136 to 138 | 55 | 71 | 76 | 139 | –
5 | CC[C@@](C)(Oc1ccc(OCc2cc(-c3ccc(OS(C)(=O)=O)cc3)no2)cc1)C(=O)O [Example 26] | 1.8 | 5.7 | 5.8 | – | – | – | 0.1 | 1.0 | 5.3 | – | – | – | – | – | – | 50
6 | CC(C)(Oc1ccc(CCCc2cc(-c3ccccc3)no2)cc1)C(=O)O [Example 28, 2-methyl-2-{4-[3-(3-phenylisoxazol-5-yl)propyl]phenoxy}propanoic acid] | 1.5 | 4.8 | 5.9 | – | – | – | 2.0 | 2.8 | 12.4 | 48 | – | 62 | 70 | – | 132 | –
7 | O=C(O)C1(Cc2ccc(OCc3cc(-c4ccc(C(F)(F)F)cc4)no3)cc2)CCCO1 (stereo not drawn) [Example 36] | 4.1 | 4.9 | 5.4 | 0.9 | 26.4 | 23.2 | 4.3 | 9.8 | 13.5 | – | – | 63 | 52 | 62 | 128 | 26
8 | O=C(O)[C@]1(Cc2ccc(OCc3cc(-c4ccc(C(F)(F)F)cc4)no3)cc2)CCCO1 [Example 37] | – | – | – | – | – | – | – | – | – | 69 | – | 68 | 69 | 75 | 138 | –
9 | O=C(O)C1(Cc2ccc(OCc3cc(-c4ccccc4)no3)cc2)CCCO1 (stereo not drawn) [Example 39] | 1.1 (1.1) | 3.9 | 4.7 | – | – | – | 1.8 | 3.9 | 9.0 | 44 | – | – | – | – | – | –
